Measured values: patent US20240368150A1 (Hoffmann-La Roche Inc., priority 2021, published 2024)
pEC50: −log10 of the molar value. Like-named read-outs stand apart in the source and are kept apart here.

Tests used:
primary human T-cells [1] = assay: Proliferation assay after 5 days (CellTiter-Glo, CD3 stimulation; PBS counter screen); format: cell-based; conditions: T-cell, 120 h, CD3 stimulation; for Emax: 5 days, normalized to reference compound A1 as stimulator control = 100%, DMSO neutral control, read-out: Emax proliferation (% activation); for pEC50: primary human T-cells, CellTiter-Glo after 5 days, EC50 of fitted sigmoidal curve, read-out: Tcell Proliferation CD3 EC50
In short: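 Primary human T-cells, with or without CD3 stimulation, exposed to compounds for 5 days; cell number read as ATP by CellTiter-Glo 2.0 luminescence after 45 min equilibration and 15 min reagent incubation at room temperature. Compounds activating unstimulated cells or reducing viability were flagged.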

primary human T-cells [2] = tested on: primary human T-cells

SMILES: C#CC1(Nc2nnc(-c3cc4c(cc3F)S(=O)(=O)C[C@H](N)C(=O)N4Cc3ccc(Cl)cc3)o2)CCCCC1 [Example 497, (3R)-3-amino-5-[(4-chlorophenyl)methyl]-7-[5-[(1-ethynylcyclohexyl)amino]-1,3,4-oxadiazol-2-yl]-8-fluoro-1,1-dioxo-2,3-dihydro-1λ^6,5-benzothiazepin-4-one]
- Emax (primary human T-cells [1]; Homo sapiens): 125%
- pEC50 (primary human T-cells [1]; Homo sapiens): 6.06
- pEC50 (primary human T-cells [2]): 5.76

SMILES: CC(Nc1nnc(-c2cc3c(cc2F)S(=O)(=O)C[C@H](N)C(=O)N3Cc2ccc(Cl)cc2)o1)C(F)(F)F (stereo partly drawn) [Example 498, (3R)-3-amino-5-[(4-chlorophenyl)methyl]-8-fluoro-1,1-dioxo-7-[5-[(2,2,2-trifluoro-1-methyl-ethyl)amino]-1,3,4-oxadiazol-2-yl]-2,3-dihydro-1λ^6,5-benzothiazepin-4-one]
- Emax (primary human T-cells [1]; Homo sapiens): 103%
- pEC50 (primary human T-cells [1]): 5.97
- pEC50 (primary human T-cells [2]): 6.14

SMILES: N[C@H]1CS(=O)(=O)c2cc(F)c(-c3nnc(NC45CC(F)(C4)C5)o3)cc2N(Cc2ccc(Cl)cc2)C1=O [Example 499, (3R)-3-amino-5-[(4-chlorophenyl)methyl]-8-fluoro-7-[5-[(3-fluoro-1-bicyclo[1.1.1]pentanyl)amino]-1,3,4-oxadiazol-2-yl]-1,1-dioxo-2,3-dihydro-1λ^6,5-benzothiazepin-4-one]
- Emax (primary human T-cells [1]; Homo sapiens): 68%
- pEC50 (primary human T-cells [1]; Homo sapiens): 6.11
- pEC50 (primary human T-cells [2]): 5.65

SMILES: N[C@H]1CS(=O)(=O)c2cc(F)c(-c3nnc(NC45CC(Cl)(C4)C5)o3)cc2N(Cc2ccc(Cl)cc2)C1=O [Example 500, (3R)-3-amino-7-[5-[(3-chloro-1-bicyclo[1.1.1]pentanyl)amino]-1,3,4-oxadiazol-2-yl]-5-[(4-chlorophenyl)methyl]-8-fluoro-1,1-dioxo-2,3-dihydro-1λ^6.5-benzothiazepin-4-one]
- Emax (primary human T-cells [1]; Homo sapiens): 97%
- pEC50 (primary human T-cells [1]; Homo sapiens): 5.91
- pEC50 (primary human T-cells [2]): 6.04

SMILES: N[C@H]1CS(=O)(=O)c2cc(F)c(-c3nnc(NC45CC(C4)C5)o3)cc2N(Cc2ccc(Cl)cc2)C1=O [Example 501, (3R)-3-amino-7-[5-(1-bicyclo[1.1.1]pentanylamino)-1,3,4-oxadiazol-2-yl]-5-[(4-chlorophenyl)methyl]-8-fluoro-1,1-dioxo-2,3-dihydro-1λ^6.5-benzothiazepin-4-one]
- Emax (primary human T-cells [1]; Homo sapiens): 92%
- pEC50 (primary human T-cells [1]; Homo sapiens): 6.33
- pEC50 (primary human T-cells [2]): 5.51

SMILES: CC(F)(F)CNc1nnc(-c2cc3c(cc2F)S(=O)(=O)C[C@H](N)C(=O)N3Cc2ccc(Cl)cc2)o1 [Example 502, (3R)-3-amino-5-[(4-chlorophenyl)methyl]-7-[5-(2,2-difluoropropylamino)-1,3,4-oxadiazol-2-yl]-8-fluoro-1,1-dioxo-2,3-dihydro-1λ^6,5-benzothiazepin-4-one]
- Emax (primary human T-cells [1]; Homo sapiens): 72%
- pEC50 (primary human T-cells [1]; Homo sapiens): 5.35
- pEC50 (primary human T-cells [2]): < 5.00

SMILES: C[C@@H](COC(F)(F)F)Nc1nnc(-c2cc3c(cc2F)S(=O)(=O)C[C@H](N)C(=O)N3Cc2ccc(Cl)cc2)o1 [Example 503, (3R)-3-amino-5-[(4-chlorophenyl)methyl]-8-fluoro-1,1-dioxo-7-[5-[[(1S)-1-methyl-2-(trifluoromethoxy)ethyl]amino]-1,3,4-oxadiazol-2-yl]-2,3-dihydro-1λ^6,5-benzothiazepin-4-one]
- Emax (primary human T-cells [1]; Homo sapiens): 135%
- pEC50 (primary human T-cells [1]; Homo sapiens): 6.43
- pEC50 (primary human T-cells [2]): 5.51

SMILES: N[C@H]1CS(=O)(=O)c2cc(F)c(-c3nnc(NC4CC(C(F)(F)F)C4)o3)cc2N(Cc2ccc(Cl)cc2)C1=O (stereo partly drawn) [Example 504, (3R)-3-amino-5-[(4-chlorophenyl)methyl]-8-fluoro-1,1-dioxo-7-[5-[[3-(trifluoromethyl)cyclobutyl]amino]-1,3,4-oxadiazol-2-yl]-2,3-dihydro-1λ^6,5-benzothiazepin-4-one]
- Emax (primary human T-cells [1]; Homo sapiens): 103%
- pEC50 (primary human T-cells [1]; Homo sapiens): 5.95
- pEC50 (primary human T-cells [2]): 5.91

SMILES: N[C@H]1CS(=O)(=O)c2cc(F)c(-c3nnc(N4CC5(CCCO5)C4)o3)cc2N(Cc2ccc(Cl)cc2)C1=O [Example 505, (3R)-3-amino-5-[(4-chlorophenyl)methyl]-8-fluoro-7-[5-(5-oxa-2-azaspiro[3.4]octan-2-yl)-1,3,4-oxadiazol-2-yl]-1,1-dioxo-2,3-dihydro-1λ^6,5-benzothiazepin-4-one]
- Emax (primary human T-cells [1]; Homo sapiens): 94%
- pEC50 (primary human T-cells [1]; Homo sapiens): 6.74
- pEC50 (primary human T-cells [2]): 6.72

SMILES: CC(CC(F)(F)F)Nc1nnc(-c2cc3c(cc2F)S(=O)(=O)C[C@H](N)C(=O)N3Cc2ccc(Cl)cc2)o1 (stereo partly drawn) [Example 506, (3R)-3-amino-5-[(4-chlorophenyl)methyl]-8-fluoro-1,1-dioxo-7-[5-[(3,3,3-trifluoro-1-methyl-propyl)amino]-1,3,4-oxadiazol-2-yl]-2,3-dihydro-1λ^6.5-benzothiazepin-4-one]
- Emax (primary human T-cells [1]; Homo sapiens): 88%
- pEC50 (primary human T-cells [1]; Homo sapiens): 6.61
- pEC50 (primary human T-cells [2]): 5.88

SMILES: CC1CN(Cc2nnc(-c3cc4c(cc3F)SC[C@H](N)C(=O)N4Cc3ccc(Cl)cc3)o2)C1 [Example 507, (3R)-3-amino-5-[(4-chlorophenyl)methyl]-8-fluoro-7-[5-[(3-methylazetidin-1-yl)methyl]-1,3,4-oxadiazol-2-yl]-2,3-dihydro-1,5-benzothiazepin-4-one]
- Emax (primary human T-cells [1]; Homo sapiens): 74%
- pEC50 (primary human T-cells [1]; Homo sapiens): 5.65
- pEC50 (primary human T-cells [2]): 5.09

SMILES: CC(C)(C)c1nnc(-c2cc3c(cc2F)S(=O)(=O)C[C@H](N)C(=O)N3Cc2ccc(Cl)cc2)s1 [Example 508, (3R)-3-amino-7-(5-tert-butyl-1,3,4-thiadiazol-2-yl)-5-[(4-chlorophenyl)methyl]-8-fluoro-1,1-dioxo-2,3-dihydro-1λ^6,5-benzothiazepin-4-one]
- Emax (primary human T-cells [1]; Homo sapiens): 110%
- pEC50 (primary human T-cells [1]; Homo sapiens): 6.40
- pEC50 (primary human T-cells [2]): 6.34

SMILES: CC(C)(C)n1nc(-c2cc3c(cc2F)S(=O)(=O)C[C@H](N)C(=O)N3Cc2ccc(Cl)cc2)oc1=O [Example 510, 3-tert-butyl-5-[(3R)-3-amino-5-[(4-chlorophenyl)methyl]-8-fluoro-1,1,4-trioxo-2,3-dihydro-1λ^6,5-benzothiazepin-7-yl]-1,3,4-oxadiazol-2-one]
- Emax (primary human T-cells [1]; Homo sapiens): 129%
- pEC50 (primary human T-cells [1]; Homo sapiens): 6.39
- pEC50 (primary human T-cells [2]): 7.04

SMILES: COC(=O)N1CC2CC(c3nc(-c4cc5c(cc4F)[S+]([O-])C[C@H](N)C(=O)N5Cc4ccc(OC(F)(F)C(F)F)cc4)no3)(C2)C1 (stereo partly drawn) [Example 511, methyl 1-[3-[(3R)-3-amino-8-fluoro-1,4-dioxo-5-[[4-(1,1,2,2-tetrafluoroethoxy)phenyl]methyl]-2,3-dihydro-1λ^4,5-benzothiazepin-7-yl]-1,2,4-oxadiazol-5-yl]-3-azabicyclo[3.1.1]heptane-3-carboxylate]
- Emax (primary human T-cells [1]; Homo sapiens): 104%
- pEC50 (primary human T-cells [1]; Homo sapiens): 5.18
- pEC50 (primary human T-cells [2]): 5.11

SMILES: COC(=O)N1CC2CC(c3nc(-c4cc5c(cc4F)S(=O)(=O)C[C@H](N)C(=O)N5Cc4ccc(OC(F)(F)C(F)F)cc4)no3)(C2)C1 [Example 512, methyl 1-[3-[(3R)-3-amino-8-fluoro-1,1,4-trioxo-5-[[4-(1,1,2,2-tetrafluoroethoxy)phenyl]methyl]-2,3-dihydro-1λ^6,5-benzothiazepin-7-yl]-1,2,4-oxadiazol-5-yl]-3-azabicyclo[3.1.1]heptane-3-carboxylate]
- Emax (primary human T-cells [1]; Homo sapiens): 162%
- pEC50 (primary human T-cells [2]): 6.00

SMILES: COC(F)(c1nc(-c2cc3c(cc2F)S(=O)(=O)C[C@H](N)C(=O)N3Cc2ccc(F)cc2)no1)C(F)(F)F (stereo partly drawn) [Example 513, (3R)-3-amino-8-fluoro-5-[(4-fluorophenyl)methyl]-1,1-dioxo-7-[5-(1,2,2,2-tetrafluoro-1-methoxy-ethyl)-1,2,4-oxadiazol-3-yl]-2,3-dihydro-1λ^6,5-benzothiazepin-4-one]
- Emax (primary human T-cells [1]; Homo sapiens): 157%
- pEC50 (primary human T-cells [1]; Homo sapiens): 6.54
- pEC50 (primary human T-cells [2]): 6.51

SMILES: COC(F)(c1nc(-c2cc3c(cc2F)[S+]([O-])C[C@H](N)C(=O)N3Cc2ccc(F)cc2)no1)C(F)(F)F (stereo partly drawn) [Example 514, (3R)-3-amino-8-fluoro-5-[(4-fluorophenyl)methyl]-1-oxo-7-[5-(1,2,2,2-tetrafluoro-1-methoxy-ethyl)-1,2,4-oxadiazol-3-yl]-2,3-dihydro-1λ^4,5-benzothiazepin-4-one]
- Emax (primary human T-cells [1]; Homo sapiens): 105%
- pEC50 (primary human T-cells [1]; Homo sapiens): 5.71
- pEC50 (primary human T-cells [2]): 5.72

SMILES: COC(F)(c1nc(-c2cc3c(cc2F)S(=N)(=O)C[C@H](N)C(=O)N3Cc2ccc(Cl)cc2)no1)C(F)(F)F (stereo partly drawn) [Example 515, (3R)-3-amino-5-[(4-chlorophenyl)methyl]-8-fluoro-1-imino-1-oxo-7-[5-(1,2,2,2-tetrafluoro-1-methoxy-ethyl)-1,2,4-oxadiazol-3-yl]-2,3-dihydro-1λ^6,5-benzothiazepin-4-one]
- Emax (primary human T-cells [1]; Homo sapiens): 63%
- pEC50 (primary human T-cells [1]; Homo sapiens): 5.31
- pEC50 (primary human T-cells [2]): 5.39

SMILES: CC(C)(C)c1nc(-c2cc3c(cc2F)S(=N)(=O)C[C@H](N)C(=O)N3Cc2ccc(Cl)cc2)no1 (stereo partly drawn) [Example 516, (3R)-3-amino-7-(5-tert-butyl-1,2,4-oxadiazol-3-yl)-5-[(4-chlorophenyl)methyl]-8-fluoro-1-imino-1-oxo-2,3-dihydro-1λ^6,5-benzothiazepin-4-one]
- Emax (primary human T-cells [1]; Homo sapiens): 51%
- pEC50 (primary human T-cells [1]; Homo sapiens): 5.08
- pEC50 (primary human T-cells [2]): 5.56

SMILES: CN=S1(=O)C[C@H](N)C(=O)N(Cc2ccc(OC(F)(F)F)cc2)c2cc(-c3nnc(C(C)(C)C)o3)c(F)cc21 (stereo partly drawn) [Example 519, (3R)-3-amino-7-(5-tert-butyl-1,3,4-oxadiazol-2-yl)-8-fluoro-1-methylimino-1-oxo-5-[[4-(trifluoromethoxy)phenyl]methyl]-2,3-dihydro-1λ^6,5-benzothiazepin-4-one]
- Emax (primary human T-cells [1]; Homo sapiens): 72%
- pEC50 (primary human T-cells [1]; Homo sapiens): 5.36
- pEC50 (primary human T-cells [2]): 5.26

SMILES: COC(=O)N1CC2CC(c3nc(-c4cc5c(cc4F)S(=N)(=O)C[C@H](N)C(=O)N5Cc4ccc(OC(F)(F)C(F)F)cc4)no3)(C2)C1 (stereo partly drawn) [Example 520, methyl 1-[3-[(3R)-3-amino-8-fluoro-1-imino-1,4-dioxo-5-[[4-(1,1,2,2-tetrafluoroethoxy)phenyl]methyl]-2,3-dihydro-1λ^6,5-benzothiazepin-7-yl]-1,2,4-oxadiazol-5-yl]-3-azabicyclo[3.1.1]heptane-3-carboxylate]
- Emax (primary human T-cells [1]; Homo sapiens): 42%
- pEC50 (primary human T-cells [1]; Homo sapiens): 6.57
- pEC50 (primary human T-cells [2]): 5.94
